ChEMBL document CHEMBL1128530, “Alpha- and beta-adrenoceptors: from the gene to the clinic. 1. Molecular biology and adrenoceptor subclassification” (J Med Chem, 1995)

Assays:
[1] = molecular target: T1, Alpha-2 adrenergic receptor (Mus musculus, UniProt P30545+Q01338+Q01337); experiment: Compound was evaluated for inhibition of binding of [3H]MK-91 to Alpha-2 adrenergic receptor in mouse Malpha2-10H clone; assay type: protein assay
T1 sequence (P30545 whole entry): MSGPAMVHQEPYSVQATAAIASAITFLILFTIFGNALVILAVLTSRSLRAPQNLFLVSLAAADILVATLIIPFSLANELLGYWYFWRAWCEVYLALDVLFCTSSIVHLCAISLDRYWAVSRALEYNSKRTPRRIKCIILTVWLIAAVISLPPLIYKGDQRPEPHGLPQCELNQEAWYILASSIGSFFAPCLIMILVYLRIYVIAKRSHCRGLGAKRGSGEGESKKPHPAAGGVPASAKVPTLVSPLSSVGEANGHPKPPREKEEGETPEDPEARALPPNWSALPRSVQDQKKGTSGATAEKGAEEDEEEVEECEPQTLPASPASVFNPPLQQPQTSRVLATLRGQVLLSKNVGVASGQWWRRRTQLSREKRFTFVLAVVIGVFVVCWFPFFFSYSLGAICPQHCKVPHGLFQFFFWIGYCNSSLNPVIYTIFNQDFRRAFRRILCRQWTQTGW
T1 sequence (Q01338 whole entry): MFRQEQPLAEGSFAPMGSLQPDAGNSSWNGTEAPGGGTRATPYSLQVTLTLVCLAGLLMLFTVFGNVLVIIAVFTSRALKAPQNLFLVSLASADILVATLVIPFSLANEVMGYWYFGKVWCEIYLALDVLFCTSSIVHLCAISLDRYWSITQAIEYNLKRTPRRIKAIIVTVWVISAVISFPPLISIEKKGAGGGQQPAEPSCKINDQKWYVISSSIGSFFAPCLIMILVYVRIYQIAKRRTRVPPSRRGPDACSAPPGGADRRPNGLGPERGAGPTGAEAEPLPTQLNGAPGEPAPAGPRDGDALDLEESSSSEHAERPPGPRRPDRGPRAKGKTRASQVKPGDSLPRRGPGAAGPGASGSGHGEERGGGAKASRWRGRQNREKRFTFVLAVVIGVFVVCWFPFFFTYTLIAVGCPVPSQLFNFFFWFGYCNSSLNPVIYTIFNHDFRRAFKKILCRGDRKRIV
T1 sequence (Q01337 whole entry): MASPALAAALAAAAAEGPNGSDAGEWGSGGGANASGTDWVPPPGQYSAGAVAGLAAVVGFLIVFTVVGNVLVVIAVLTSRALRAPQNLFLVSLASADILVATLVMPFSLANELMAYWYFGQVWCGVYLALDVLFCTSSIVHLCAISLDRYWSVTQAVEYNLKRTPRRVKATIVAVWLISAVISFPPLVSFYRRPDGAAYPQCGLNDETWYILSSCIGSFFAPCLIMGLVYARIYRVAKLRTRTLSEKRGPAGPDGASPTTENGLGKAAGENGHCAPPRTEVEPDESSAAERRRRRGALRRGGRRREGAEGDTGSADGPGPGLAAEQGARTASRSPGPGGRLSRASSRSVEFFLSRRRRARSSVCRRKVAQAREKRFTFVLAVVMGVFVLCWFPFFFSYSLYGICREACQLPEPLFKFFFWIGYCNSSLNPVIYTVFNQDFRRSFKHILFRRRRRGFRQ

[2] = molecular target: T1, Alpha-2 adrenergic receptor; experiment: Compound was evaluated for inhibition of binding of [3H]MK-91 to Alpha-2 adrenergic receptor in mouse Malpha2-4H; assay type: protein assay
[3] = molecular target: T2, Alpha-2A adrenergic receptor (Bos taurus, UniProt Q28838); experiment: Compound was evaluated for inhibition of binding of [3H]MK-91 to Alpha-2 adrenergic receptor in bovine pineal
T2 sequence (Q28838 whole entry): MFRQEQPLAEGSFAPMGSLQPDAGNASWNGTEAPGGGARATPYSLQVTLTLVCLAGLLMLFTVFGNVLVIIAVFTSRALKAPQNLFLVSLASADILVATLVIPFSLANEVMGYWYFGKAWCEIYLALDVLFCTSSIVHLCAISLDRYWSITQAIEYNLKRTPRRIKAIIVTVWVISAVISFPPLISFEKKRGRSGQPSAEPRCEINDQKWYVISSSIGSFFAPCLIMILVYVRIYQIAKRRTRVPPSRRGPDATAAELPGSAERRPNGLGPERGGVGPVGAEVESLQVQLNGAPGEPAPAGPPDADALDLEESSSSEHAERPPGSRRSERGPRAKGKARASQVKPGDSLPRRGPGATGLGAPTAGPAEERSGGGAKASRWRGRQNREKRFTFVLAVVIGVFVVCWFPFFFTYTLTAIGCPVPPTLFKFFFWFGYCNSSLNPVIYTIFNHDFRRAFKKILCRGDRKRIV

[4] = molecular target: T3, Alpha-2A adrenergic receptor (Sus scrofa, UniProt P18871); experiment: Compound was evaluated for inhibition of binding of [3H]MK-91 to Alpha-2 adrenergic receptor in porcine alpha2-clone
T3 sequence (P18871 whole entry): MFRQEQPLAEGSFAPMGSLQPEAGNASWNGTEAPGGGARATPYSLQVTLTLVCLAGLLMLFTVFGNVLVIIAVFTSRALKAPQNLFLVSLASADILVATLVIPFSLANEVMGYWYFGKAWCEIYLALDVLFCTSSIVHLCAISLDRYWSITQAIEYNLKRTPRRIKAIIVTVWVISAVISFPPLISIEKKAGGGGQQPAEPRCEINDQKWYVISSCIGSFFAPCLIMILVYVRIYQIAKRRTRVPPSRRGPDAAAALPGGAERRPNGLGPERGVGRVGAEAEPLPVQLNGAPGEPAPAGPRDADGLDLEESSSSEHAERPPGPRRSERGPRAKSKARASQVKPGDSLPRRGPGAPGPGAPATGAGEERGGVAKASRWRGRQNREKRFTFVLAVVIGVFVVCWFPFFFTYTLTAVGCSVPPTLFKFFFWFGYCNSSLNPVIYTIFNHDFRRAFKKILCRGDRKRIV

[5] = molecular target: T1, Alpha-2 adrenergic receptor; experiment: Compound was evaluated for inhibition of binding of [3H]-MK-91 to Alpha-2 adrenergic receptor in mouse NG-108 cells; assay type: cell-based

Compound: Cc1cc(C(C)(C)C)c(O)c(C)c1CC1=NCCN1 [OXYMETAZOLINE]
- Ki [1]: 33 nM
- Ki [2]: 109 nM
- Ki [3]: 1.5 nM
- Ki [4]: 21 nM
- Ki [5]: 132 nM
